Data set [1] relates to polyps. The note with it: cited from earlier work; for effect on polyps: sulindac: nine familial polyposis patients, randomized placebo-controlled double-blind crossover.
For data set [2] the following is noted: in vivo; cited from earlier work.
Data set [3] deals with LoVo cells. As to the kind of experiment: Growth inhibition of LoVo colon cancer cells. The format is cell-based. The note with it: Homo sapiens, Table IV, read-out: IC50 for inhibition of human colon cancer cell proliferation. Here is the method: (§1) For dose response studies a sensitive dye binding assay was adapted which allows simultaneous assay of multiple agents and doses in 96-well plates. Cells were plated and allowed to adhere for 24 hours prior to addition of the study drug. Cell densities were then determined 4 days later by fixation of the wells and staining with Sulforhodamine B dye.

The test system of data set [4] is LS174T cells. As to the kind of experiment: Proliferation of LS174T colon cancer cells, Coulter Counter cell count. Type of data set: cell-based, human. The note with it: for Cell No. on Day 10: average of triplicate wells; for activity at 10000 µM: 240 h. Here is the method: (§2) Cells were grown in Dulbeccos Modified Eagle medium supplemented with 10% calf serum in an atmosphere of 5% CO2 at 37° C. For growth experiments, cells were seeded into 24-well tissue culture dishes (2 cm^2 /well) at a density of 20,000 cells/well and allowed to attach for 12 hours. The growth medium was then changed and replaced with fresh media containing the test drugs.
(§3) The test drugs were dissolved in tissue culture media at the desired concentration and added to individual wells. To determine the number of cells per well, media was removed and the cells washed with phosphate buffered saline solution. The cells were then incubated 15 minutes with trypsin-EDTA solution until detached. The detached cells were then removed from the wells and counted using a Coulter Counter (Model ZBI).
(§4) The cell numbers shown in Table I are the average of triplicate culture wells.

Data set [5] has as its system HT-29 cells. Description: Proliferation of HT-29 colon cancer cells, Coulter Counter cell count. Type of data set: cell-based, human. The note with it: for Cell No. on Day 10: average of triplicate wells; for activity at 10000 µM: read-out: % of Control Cells. How it is done:
as §2, §3, §4

In data set [6] the test system is HT-29 cells. Description: Dose response growth inhibition of HT-29 cells, Sulforhodamine B dye binding assay. The format is cell-based, human. The note with it: for IC50: Homo sapiens. How it is done: as §1
The subject of data set [7] is HRT-18 cells. Description: Growth inhibition of HRT-18 colon cancer cells. Type of data set: cell-based. The note with it: Homo sapiens; HRT-18, Table IV; read-out: IC50 for inhibition of human colon cancer cell proliferation. How it is done:
as §1

For data set [8] the following is noted: cited from earlier work; for absorption: oral balsalazide.
For data set [9], the system named is nitrosamine formation. The note with it: from arginine-dependent nitric oxide; cited from earlier work.
For data set [10], the system named is colon cancer cells. Description: 5-ASA growth inhibitory activity following hypochlorite exposure. The note with it: for inhibition at 10000 µM: 5-ASA 10 mM, read-out: Increase in Growth Inhibition. Type of data set: cell-based. An excerpt: Indeed certain of its therapeutic benefits in the treatment of intestinal inflammation are thought to be derived from its ability to scavenge free radicals including O2^- released from inflammatory cells and thereby reduced oxidative damage.

Data set [11] concerns LS174T cells. As to the kind of experiment: LS174T growth with freshly dissolved or pre-dissolved 5-ASA. The format is cell-based. The note with it: Homo sapiens, 96 h. How it is done:
Cells were grown an additional 4 days prior to quantitation.

In data set [12] the test system is rectal mucosal reactive oxygen metabolite production. The note with it: rectal biopsies, ulcerative colitis patients; cited from earlier work.
In data set [13] the test system is LS174T cells. Description: Dose response growth inhibition of LS174T cells, Sulforhodamine B dye binding assay. The format is cell-based, human. The note with it: for IC50: Homo sapiens. Here is the method: as §1
For orientation: Sulforhodamine B stains cellular protein and so reports cell mass.

Data set [14] relates to colon carcinogenesis. The note with it: cited from earlier work.
Data set [15] relates to human colon cancer cells. As to the kind of experiment: Colon cancer cell proliferation in vitro, comparative statements. The format is cell-based. How it is done: as §2, §3, §4
For dose response studies a sensitive dye binding assay was adapted which allows simultaneous assay of multiple agents and doses in 96-well plates. Cells were plated and allowed to adhere for 24 hours prior to addition of the study drug. Cell densities were then determined 4 days later by fixation of the wells and staining with Sulforhodamine B dye. Optical density of the stained cultures was then determined using a 96-well plate reader at 495 nm (Skehan et al. (1990) J. Natl. Cancer Inst. 82:1107-1112).
Two such oxidation products, gentisic acid (Dull et al. (1987) Biochem. Pharmacol. 36:2467-2472) and 5-nitro-salicylate (Laffafian et al. (1991) Biochem. Pharmacol. 42:1869-1874) have been elucidated.

The subject of data set [16] is colon cancer incidence. The note with it: cited from earlier work.
Where [17] appears, read: Homo sapiens, 10 mM, Day 10, read-out: % of Control Cells.
Setting [18] is: Homo sapiens, 240 h, HT-29, 10 mM, Day 10.
Where [19] appears, read: HT-29, Table IV, read-out: IC50 for inhibition of human colon cancer cell proliferation.
Where [20] appears, read: Table IV, read-out: IC50 for inhibition of human colon cancer cell proliferation.

“Also recorded” adds a separate entry of the source. Like-named read-outs stand apart in the source and are kept apart here.

For the molecule `COc1ccc2c(c1)c(CC(=O)O)c(C)n2C(=O)c1ccc(Cl)cc1` [indomethacin], the effect on polyps entry in data set [1] is listed as “no influence on polyp regression”. The absorption / activation entry in [2] is “absorbed primarily from the upper GI tract”.

As to `Nc1ccc(O)c(C(=O)O)c1` [5-ASA, 5-aminosalicylic acid], the IC50 in data set [3] is 10.2 mM; in data set [6] (setting [19]), 11.9 mM; in data set [6] (HT-29, text (FIG. 5), read-out: IC50), 11.8 mM; in data set [7] it was 10.5 mM; in [13] (setting [20]), 11.6 mM; in data set [13] (text (FIG. 5), read-out: IC50), 11.5 mM. The “Cell No. on Day 10” value in data set [4] (10 mM) was found to be 8675; in [5] (HT-29, 10 mM) it was 512825. The inhibition – broadly, the drop in the measured response relative to a control, in per cent – at 10000 µM in data set [4] (Homo sapiens, 10 mM, read-out: growth inhibition) was 85%; in data set [5] (Homo sapiens, HT-29, 10 mM, read-out: growth inhibition), 82%; in data set [10] (Na hypochlorite 0 mM), 0%; in [10] (Na hypochlorite 0.01 mM), 2%; in data set [10] (Na hypochlorite 0.05 mM) it was 4%; in data set [10] (Na hypochlorite 0.1 mM), 8%. The inhibition at 10000 µM in data set [10] (Na hypochlorite 0.2 mM) turned out to be 26%; in data set [10] (Na hypochlorite 0.3 mM), 42%; in data set [10] (Na hypochlorite 0.4 mM), 48%. Also, the activity at 10000 µM was determined as 1.22% in [4] (setting [17]); 39% in data set [5] (setting [18]); 22.9% in data set [11] (10 mM dissolved in culture media 4 days prior, read-out: growth response relative to control cultures); 82.7% in data set [11] (freshly dissolved 10 mM, 4 days, read-out: growth response relative to control cells). Further, the “increase in cell number” value in data set [6] (HT-29, 0.1-4 mM) was “approximately 20%”; in data set [13] (0.1-1.0 mM) it was “approximately 20%”. The “conversion to N-acetyl-5-ASA and excretion in urine” value in data set [8] (single dose of balsalazide, 96-hour period) is on record as “majority”. In addition, the “inhibition of nitrosamine formation” value in data set [9] is reported as “inhibits nitrosamine formation”. In data set [10] (unoxidized 5ASA), this molecule registered a Basal inhibitory activity of 45%. Also, the “reduction of rectal mucosal reactive oxygen metabolite production” value in data set [12] is “over 90%”.

Regarding `CC1=C(CC(=O)O)c2cc(F)ccc2/C1=C\c1ccc([S+](C)[O-])cc1` (stereo not shown) [sulindac], the “effect on tumor incidence, dimethylhydrazine-induced” value in data set [14] was “reduce tumor incidence only when present during carcinogen administration”. In [1] (nine familial polyposis patients), the “time to regression of polyps” value is listed as “less than 4 months”. The effect on polyps result in [1] is on record as “regression of polyps; also recorded: polyp growth resumed following sulindac withdrawal”. Also, in data set [2], the absorption / activation result is on record as “converted to its active metabolite, sulindac sulfide, by the colonic bacteria”.

For the molecule `O=C(O)c1cc(O)ccc1O` [Gentisate, gentisic acid], the IC50 in data set [3] was determined as 4.42 mM; in [6] (setting [19]) it was 5.05 mM; in data set [7] it was 2.98 mM; in data set [13] (setting [20]), 5.85 mM. Also, the “inhibition of colon cancer cell growth (in words)” value (“inhibition … (in words)” below) in data set [15] was “inhibited cell growth”.

Take `[Na+].[O-]Cl` [NaOCl, sodium hypochlorite]: the Background inhibitory activity result in data set [10] (0.4 mM NaOCl) is reported as “less than 2%”.

Consider `CC(=O)Nc1ccc(C(=O)NCCC(=O)O)cc1` [N-acetyl metabolite of 4-ABA], for which the absorption entry in data set [8] is recorded as “poorly absorbed”.

For the molecule `O=C(O)c1cc([N+](=O)[O-])ccc1O` [5-NSA, 5-nitro-salicylate], the IC50 worked out at 1.38 mM in data set [3], 1.63 mM in [6] (setting [19]), 1.46 mM in [7] and 2.69 mM in [13] (setting [20]).

`CC(=O)Oc1ccccc1C(=O)O` [Ac-salicylic acid, acetyl salicylic acid]: the “Cell No. on Day 10” value in data set [4] (10 mM) amounted to 8300; in data set [5] (HT-29, 10 mM), 14625. Besides, the activity at 10000 µM is 2.24% in data set [4] (Homo sapiens, read-out: % of Control Cells) and 1.11% in [5] (Homo sapiens, HT-29, 240 h). The “risk of colon cancer development” value in [16] (retrospective study (Kune et al.)) is on record as “halving”. In data set [16] (retrospective study (Paganini-Hill et al.)), the “increased risk of colon cancer” value is listed as 50%. Besides, the “inhibition … (in words)” value in data set [15] was “potently inhibitory”.

For the molecule `CC(=O)Nc1ccc(O)c(C(=O)O)c1` [N-acetyl-5-ASA], the “activity of N-acetyl metabolite of 5-ASA” value in [8] (in vivo) is “inactive”.

`Nc1ccc(C(=O)NCCC(=O)O)cc1` [4-ABA, 4-aminobenzoyl-β-alanine]: the “Cell No. on Day 10” value in data set [4] (10 mM) is 768700; in [5] (HT-29, 10 mM), 1316625. The activity at 10000 µM was 108% in [4] (setting [17]) and 100% in [5] (setting [18]). In addition, in data set [15], the “inhibition … (in words)” value is “inactive”. For the same molecule, the absorption result in data set [8] is on record as “poorly absorbed”.

The values above are taken from patent publication US5905073A, “Use of 2-hydroxy-5-phenylazobenzoic acid derivatives as colon cancer chemopreventative and chemotherapeutic agents” (priority 1996, dated 1999).
